Laboratory results reported in PMC12214830, “The human RIF1-Long isoform interacts with BRCA1 to promote recombinational fork repair under DNA replication stress” (Nature Communications, 2025).

Legend:
Type in all cases: cell-based, human
[1] = system: GFP-RIF1-L / GFP-RIF1-L-pp1bs foci; test: GFP-RIF1 foci formation, HeLa cells; conditions: HU 4 mM 24 h
Method: Cells were grown on glass coverslips and treated as desired. Cells were then permeabilized with 0.5% TritonX-100 in PBS for 7 min on ice, and fixed with 4% w/v formaldehyde solution (Sigma HT5012) for 10 min at room temperature (RT). After fixation, coverslips were blocked with 3% BSA in PBS (RT, 1 h), incubated with primary antibodies (RT, 2 h), washed with PBS three times and incubated with secondary antibodies (RT, 1 h). Primary antibodies used for immunofluorescence include anti-γH2A.X (20E3) (Cell Signalling Technology, 9718. 1:500); anti-RPA32/RPA2 (9H8) (Abcam, ab2175. 1:200); anti-RAD51 (H92) (Santa Cruz Biotechnology, sc-8349. 1:100); anti-BrdU (B44) (BD Biosciences, 347580. 1:100); Coverslips were then mounted on glass slides with mounting medium with DAPI. Images were captured by either standard (Zeiss Axio Imager) or confocal (Zeiss LSM-880) microscopy. Fluorescence signal intensities within each nucleus were analysed by CellProfiler software with custom-made pipelines. Co-localisation analyses were performed with custom-made CellProfiler pipelines. Briefly, nuclei were identified and used to create masks. […]

GFP-RIF1-L-pp1bs foci = test: co-localisation of RIF1-L-pp1bs foci with BRCA1, γH2AX, RAD51, HeLa cells; conditions: HU 4 mM 24 h
Method: Cells were grown on glass coverslips and treated as desired. Cells were then permeabilized with 0.5% TritonX-100 in PBS for 7 min on ice, and fixed with 4% w/v formaldehyde solution (Sigma HT5012) for 10 min at room temperature (RT). After fixation, coverslips were blocked with 3% BSA in PBS (RT, 1 h), incubated with primary antibodies (RT, 2 h), washed with PBS three times and incubated with secondary antibodies (RT, 1 h). Primary antibodies used for immunofluorescence include anti-γH2A.X (20E3) (Cell Signalling Technology, 9718. 1:500); anti-RPA32/RPA2 (9H8) (Abcam, ab2175. 1:200); anti-RAD51 (H92) (Santa Cruz Biotechnology, sc-8349. 1:100); anti-BrdU (B44) (BD Biosciences, 347580. 1:100); Coverslips were then mounted on glass slides with mounting medium with DAPI. Images were captured by either standard (Zeiss Axio Imager) or confocal (Zeiss LSM-880) microscopy. Fluorescence signal intensities within each nucleus were analysed by CellProfiler software with custom-made pipelines. Co-localisation analyses were performed with custom-made CellProfiler pipelines. Briefly, nuclei were identified and used to create masks. Nuclear RIF1-L-pp1bs, BRCA1, γH2AX, RAD51 foci were identified as objects using Otsu thresholding. ‘Relate objects’ function (defining RIF1-L-pp1bs foci as parent object and foci of other proteins as children object) was used to measure the percentage of RIF1-L-pp1bs foci co-localised with other proteins.

[2] = system: RIF1-BRCA1 proximity in RPE-1 cells; test: RIF1-BRCA1 proximity ligation assay, RPE-1 cells
Method: Proximity ligation assays were performed using the Duolink In Situ PLA Fluorescence Protocol (Sigma-Aldrich, DUO92101) following the manufacturer’s instruction. Cells were grown on glass coverslips and treated as indicated for specific experiments. Cells were then permeabilized with 0.5% TritonX-100 in PBS for 10 min on ice, and fixed with 3% formaldehyde, 2% sucrose in PBS for 10 min at room temperature (RT). After fixation, coverslips were blocked in 3% BSA in PBS for 1 h at RT and incubated with primary antibodies (anti-RIF1, Bethel laboratories A300-568A, 1:1000 dilution; anti-BRCA1, Santa Cruz Biotechnologies, sc-6954, 1:200 dilution), for 1 h at RT in a humidity chamber. Primary antibodies were then washed off with PLA washing buffer A supplied in the Duolink In Situ PLA kit. Coverslips were next incubated sequentially with PLA Probes (1 h at 37 °C), ligation solution (30 min at 37 °C) and amplification solution (100 min at 37 °C), with washes by washing buffer A in between each step. At the end of incubation, coverslips were washed with washing buffer B supplied in the Duolink In Situ PLA kit. Coverslips were then mounted on glass slides with PLA Mounting medium with DAPI. Images were captured by fluorescence microscopy (Zeiss Axio Imager). PLA foci number in each nucleus were analysed by CellProfiler Software[74] with a custom-made pipeline.
For EdU labelling combined with proximity ligation assay, cells were labelled with 10 µM EdU for 15 min, washed free of EdU and next incubated with medium containing 4 mM HU medium for 4 h. Cells were then permeabilized, fixed and subjected to RIF1-BRCA1 PLA procedures. After all PLA steps, EdU detection was performed following manufacturer’s instructions in the Click-iT EdU Imaging Kit (Invitrogen, C10640).
(§1) For proximity ligation assays and immunofluorescence signal intensity measurements, when comparing between two samples, statistical significance of differences was calculated by Mann-Whitney test for non-parametric distributions using GraphPad Prism software (v.9). When comparing among three or more samples, p values were calculated by Kruskal-Wallis test for non-parametric distributions with Dunn’s multiple comparisons using GraphPad Prism software (v.9). For RIF1 foci formation analysis (Fig. 6B), p values were calculated by two-tailed Student’s t test. For nuclear BRCA1 intensity fold change analyses (Fig. 6C, D), p values were calculated by two-tailed one-sample t test using GraphPad Prism software (v.9). For RAD51 foci formation analyses (Fig. 7B, E and Supplementary Fig. 7B), p values were calculated by chi-square test. For HR Reporter assay analysis (Fig. 7G and Supplementary Fig. 7L), p values were calculated by two-tailed paired Student’s t test. For micronuclei frequency analysis (Fig. 7H), p values were calculated by one-tailed paired Student’s t test. All Student’s t tests were performed with Excel T.TEST function. Chi-square tests were performed with the online Chi-square test calculator at https://www.socscistatistics.com/tests/chisquare2/default2.aspx. Sample number n for all box-and-whisker plots and dot plots are listed in Supplementary Data 1.

micronuclei = micronuclei frequency, HeLa cells; conditions: HeLa RIF1-L vs RIF1-S or RIF1-L-APKF; HU 4 mM 24 h
Method: as §1

[3] = Fig S4F (repeat of 4E), 0h post-HU
[4] = Fig S4F (repeat of 4E), 4h post-HU
[5] = Fig S4F (repeat of 4E), 8h post-HU

NC(=O)NO [HU, hydroxyurea]
HU-treated cells with distinct GFP-RIF1-L-pp1bs foci ([1]; HeLa GFP-RIF1-L-pp1bs): ~ 70%
HU-treated cells with clear GFP-RIF1-L foci ([1]; HeLa GFP-RIF1-L): ~ 10%
RIF1-L-pp1bs foci co-localised with RAD51 and BRCA1 (GFP-RIF1-L-pp1bs foci): ~ 20%
RIF1-L-pp1bs foci colocalised with both BRCA1 and γH2AX (GFP-RIF1-L-pp1bs foci): Approximately 40%
RIF1-L-pp1bs foci overlapping BRCA1 signal (GFP-RIF1-L-pp1bs foci): 50–60%
RIF1-L-pp1bs foci overlapping γH2AX foci (GFP-RIF1-L-pp1bs foci): ~ 50%
RIF1-BRCA1 proximity signal after HU removal ([2]; 4 h after HU removal): retained
RIF1-BRCA1 proximity signal after HU removal ([2]; 8 h post-release): declined to baseline level
RIF1-BRCA1 PLA foci per nucleus, mean ([2]; Fig 3B, HU 4 mM 3 h): 1.331
RIF1-BRCA1 PLA foci per nucleus, median ([2]; Fig 3B, HU 4 mM 3 h): 1
RIF1-BRCA1 PLA foci per nucleus, mean ([2]; Fig 3B, HU 24 h): 3.899
RIF1-BRCA1 PLA foci per nucleus, median ([2]; Fig 3B, HU 24 h): 3
RIF1-BRCA1 PLA foci per nucleus, mean ([2]; Fig 3C, HU 4 mM 24 h): 2.024
RIF1-BRCA1 PLA foci per nucleus, median ([2]; Fig 3C, HU 4 mM 24 h): 1
RIF1-BRCA1 PLA foci per nucleus, mean ([2]; Fig 4E, 0h post-HU): 1.913
RIF1-BRCA1 PLA foci per nucleus, median ([2]; Fig 4E, 0h post-HU): 1, 1, 1, 1
RIF1-BRCA1 PLA foci per nucleus, mean ([2]; Fig 4E, 4h post-HU): 1.712
RIF1-BRCA1 PLA foci per nucleus, median ([2]; Fig 4E, 4h post-HU): 1, 1, 1, 1
RIF1-BRCA1 PLA foci per nucleus, mean ([2]; Fig 4E, 8h post-HU): 0.946
RIF1-BRCA1 PLA foci per nucleus, median ([2]; Fig 4E, 8h post-HU): 1, 1, 1, 1
RIF1-BRCA1 PLA foci per nucleus, mean ([2]; Fig 4F, HU 4 mM 24 h): 7.107
RIF1-BRCA1 PLA foci per nucleus, median ([2]; Fig 4F, HU 4 mM 24 h): 5
RIF1-BRCA1 PLA foci per nucleus, mean [2, 3]: 0.786
RIF1-BRCA1 PLA foci per nucleus, median [2, 3]: 0, 0, 0, 0
RIF1-BRCA1 PLA foci per nucleus, mean [2, 4]: 0.617
RIF1-BRCA1 PLA foci per nucleus, median [2, 4]: 0, 0, 0, 0
RIF1-BRCA1 PLA foci per nucleus, mean [2, 5]: 0.355
RIF1-BRCA1 PLA foci per nucleus, median [2, 5]: 0, 0, 0, 0
RIF1-BRCA1 PLA foci per nucleus, mean ([2]; Fig S4G (repeat), HU 4mM 24hr): 7.828
RIF1-BRCA1 PLA foci per nucleus, median ([2]; Fig S4G (repeat), HU 4mM 24hr): 6
RIF1-BRCA1 PLA foci per nucleus, mean ([2]; Fig S4J, HU 4mM 24hr): 7.107
RIF1-BRCA1 PLA foci per nucleus, median ([2]; Fig S4J, HU 4mM 24hr): 0, 5, 5
RIF1-BRCA1 PLA foci ([2]; HU 3 h): observable
RIF1-BRCA1 PLA foci ([2]; HU 24 h): significantly increased
frequency of micronuclei following HU (micronuclei): RIF1-L cells exhibited a lower frequency of micronuclei following HU treatment than RIF1-S or RIF1-L-APKF cells
